Patent US11890279B2, “Quinolines that modulate SERCA and their use for treating disease” (Neurodon Corporation, priority 2020, dated 2024)

Tests used:
[1] = Pharmacokinetics in CD-1 mice; type: in vivo, mouse; conditions: for F / AUC / Cmax / half-life: CD-1 mice; for F: 10 mg/kg P.O. vs 2 mg/kg i.v.; for AUC / Cmax / half-life: mouse, plasma, 2 mg/kg i.v. or 10 mg/kg P.O.; for pharmacokinetic properties as measured by CMAX, AUC and F (%): compared with other SERCA modulators, see Table 6
Procedure, shortened: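 CD-1 mice (triplicate) dosed 2 mg/kg i.v. or 10 mg/kg oral gavage, formulated 1 mg/mL in DMSO/Tween 80/water (10/10/80). EDTA plasma sampled 0.25–24 h, acetonitrile-precipitated and quantified by positive-ion MRM LC/MS/MS against internal standard; PK parameters fitted from concentration–time data.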

Ca^2+-ATPase = assay: Ca2+-ATPase assay, microsomal preparations from HEK 293 cells; type: biochemical, human
Procedure: A Ca^2+-ATPase assay was performed using microsomal preparations from HEK 293 cells at a series of calcium concentrations corresponding to the physiological range, relative to controls. The ATP hydrolysis rate was measured over a range of calcium concentrations in the presence of test compounds using an NADH-linked, enzyme-coupled ATPase assay adapted for 96-well microplates, with Vmax determined by fitting the ATPase calcium-dependence to the Hill function. […] CaCl2 was added to set free [Ca^2+] to the specific values.

[2] = Pharmacokinetics in Beagle dogs; type: in vivo; conditions: dog; for MRT inf: read-out: MRT0-∞
Procedure: Pharmacokinetics of compound A13 was assessed in dogs. […] For pharmacokinetic evaluation, 3 male Beagle dogs were intravenously (IV) dosed (1 mg/kg body weight) and 3 male Beagle dogs were orally (PO) dosed (10 mg/kg body weight) with a test compound. Blood (approximately 1.0 mL) was collected via femoral vein into tubes containing K3EDTA anticoagulant at 0, 0.017, 0.083, 0.5, 1, 2, 4, 6, 8, and 24 hours post-dosing. Plasma samples were analyzed by LC-MS/MS. The analytical results were confirmed using quality control samples for intra-assay variation. The accuracy of >66% of the quality control samples was between 80-120% of the known value(s). A standard set of pharmacokinetic parameters were generated from concentration data including Area Under the Curve (AUC0-t and AUC0-inf), elimination half-lives, clearances, volume of distribution and bioavailabilities (based on AUC0-t), maximum plasma concentration (C0; Cmax), and time to reach maximum plasma concentration (Tmax).

SERCA (SR vesicles) = assay: Activation of SERCA, increase in Vmax; type: biochemical
Procedure: Test compounds were characterized over a range of concentrations using an NADH-linked, enzyme-coupled ATPase assay. Each well contained 2 mg or 7 mg of SR vesicles (optimized for skeletal or cardiac SR, respectively), 50 mM MOPS (pH 7.0), 100 mM KCl, 5 mM MgCl2, 1 mM EGTA, 0.2 mM NADH, 1 mM phosphoenol pyruvate, 5 IU pyruvate kinase, 5 IU lactate dehydrogenase, and 3.5 mg/mL A23187 (a calcium ionophore), and CaCl2 was added to set free [Ca2+] to the specific values. The assay was started upon addition of ATP at a final concentration of 5 mM, and read in a SpectraMax Plus microplate spectrophotometer and the ATPase activities were fitted using the Hill function.

human islet microtissues = assay: Protection of human pancreatic islets under cytokine stress; type: cell-based; conditions: 168 h, compound 5 μM, cytokine cocktail IL1-β, IFN-γ, TNF-α, 7 days, read-out: increase in viability over baseline (total ATP content)
Procedure: Human pancreatic islet microtissues treated with cytokines were used to model the conditions of Type 1 Diabetes in vitro. This study tested the effects of compounds on […] viability in human islets under cytokine stress. The model consisted of human islet microtissues from an HLA-A2 positive donor grown and separated in a 96-well plate (1 microtissue per well). The microtissues were treated for 7 days with a cocktail of cytokines (IL1-β 5 ng/mL, IFN-γ 25 ng/mL, TNF-α 25 ng/mL) and compound (5 μM) or vehicle. There were 6 microtissues treated per compound or vehicle. At day 7, the total ATP content was measured using CellTiter-Glo (Promega).

[3] = Pharmacokinetics in Sprague Dawley rats; type: in vivo, rat; conditions: rat; for AUC(0-inf) / Cmax / Tmax / clearance / half-life / AUC(0-t) / MRT inf / Vd: Sprague Dawley, in vivo; for AUC(0-t): read-out: AUC0-t; for MRT inf: read-out: MRT0-∞; for Vd: read-out: Vz; for F: PO 10 mg/kg vs IV 2 mg/kg
Procedure: Blood was drawn at 5 min, 15 min, 30 min, 1 hr, 2 hrs, 4 hrs, 6 hrs, and 8 hrs into EDTA containing tubes and plasma was harvested by centrifugation. Plasma (25 μL) was treated with acetonitrile (125 μL) containing an internal standard. The sample was then centrifuged for 5 min at 4,000 rpm in a tabletop centrifuge and the filtrate was collected. The filtrate was injected onto a Thermo Betasil C18 HPLC column 5 (50×2.1 mm). Mobile Phase A was water with 0.1% formic acid. Mobile Phase B was acetonitrile with 0.1% formic acid. […] An API Sciex 4000 equipped with a turbo ion spray source was used for all analytical measurements. A positive ion MRM method was developed. Peak areas of the product ion were measured against the peak areas of the internal standard. Data was fit using WinNonLin (Pharsight Corporation, Mountain View, CA).

CSM14.1 cells = assay: ER stress cell survival assay (thapsigargin); type: cell-based; conditions: for Cell Survival: compound 2 μM, about 15 μM thapsigargin, CSM14.1 cells;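 for cell survival: survival read as CellTiter-Glo luminescence after overnight incubation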
N2a cells [4] = assay: Protection against hydrogen peroxide-induced cell death, N2a; type: cell-based, mouse; conditions: compound 40 μM; hydrogen peroxide 200 μM
Procedure, shortened: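 N2a cells were pretreated 2 h with compound at 40 μM, then exposed to 200 μM H2O2 for 40 min. AlamarBlue (10% v/v) was added and fluorescence read 2 h later. Viability expressed as % RFU of control, reported as % cell rescue.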

HEK293 cells = assay: Protection against thapsigargin (TG)-induced cell death, HEK293; type: cell-based, human; conditions: compound 20 μM; thapsigargin 15 μM; 24 hrs
Procedure: (§1) Protection against Thapsigargin (TG)-induced Cell-death. Human embryonic kidney (HEK293) cells were grown in Dulbecco's Modified Eagle's Medium (DMEM) with 10% FBS and 1% antibiotic antimycotic solution (ABAM). Mouse neuroblastoma (N2a) cells were grown in 1:1 DMEM:OPTI-MEM® with 5% FBS and 1% ABAM. All cells were grown in 10% CO2 in a humidified environment of the incubator. Cells grown in 96-well plates were exposed to a test compound (20 μM) for 2 hrs before addition of thapsigargin (15 μM for HEK293 cells and 1 μM for N2a cells) to induce ER stress. After incubation in cell-culture incubator for 24 hrs, ALAMARBLUE® regent (10% v/v) was added to the wells. Fluorescence reading was taken 2 hrs after the addition of the ALAMARBLUE® regent. Cell-viability was calculated as a percentage of relative fluorescence unit (RFU) compared to control.
(§2) The results are summarized in Table 2, where A represents a value greater than 50% cell rescue, B represents a value between 10% to 50% cell rescue, C represents a value between 1% to 10% cell rescue, and D represents a value no greater than 1% cell rescue.

N2a cells [5] = assay: Protection against thapsigargin (TG)-induced cell death, N2a; type: cell-based, mouse; conditions: compound 20 μM; thapsigargin 1 μM; 24 hrs
Procedure: as §1, §2

ob/ob mice = assay: Effect on the level of blood glucose in ob/ob mice; type: in vivo, mouse; conditions: for blood glucose: 10 or 50 mg/kg i.p. once a day for 5 days, as early as day 2; for glucose level after the last injection: for over a week after the last injection
Procedure: Fasting glucose was measured at baseline and 10 hours after the administration of the test compound. Glucose levels were measured in blood samples drawn from the tail vein using the OneTouch Ultra 2 Meter (LifeScan, Inc.).

[6] = male, Beagle, plasma, IV 1 mg/kg
[7] = male, Beagle, plasma, PO 10 mg/kg

Row | Compound | F [1] | AUC [1] | Cmax [1] | half-life [1] | increase in baseline ATPase activity (Ca^2+-ATPase) | Increase in Vmax at 10 μM (SERCA (SR vesicles)) | viability at 5 µM (human islet microtissues) | AUC(0-inf) ([3]; IV 2 mg/kg) | Cmax ([3]; IV 2 mg/kg) | Tmax ([3]; IV 2 mg/kg) | clearance ([3]; IV 2 mg/kg) | half-life ([3]; IV 2 mg/kg) | AUC(0-t) ([3]; IV 2 mg/kg) | MRT inf ([3]; IV 2 mg/kg) | AUC(0-inf) ([3]; PO 10 mg/kg) | Cmax ([3]; PO 10 mg/kg) | Tmax ([3]; PO 10 mg/kg) | AUC(0-t) ([3]; PO 10 mg/kg) | MRT inf ([3]; PO 10 mg/kg) | F [3] | also measured
1 | Cc1ccc2cccc(NC(=O)c3cccc(OC(C)C)c3)c2n1 [Compound A13, 3-Isopropoxy-N-(2-methylquinolin-8-yl)benzamide] | 3.1% | 26 ng·h/mL | 120 nM | 50.4 min | 10-15% | B′ (B′ represents an increase between 20 to 50%) | 20 to 50% | 847 ± 29 ng·h/mL | 8370 ± 1100 nM | 4.8 min | 39.3 mL/min/kg | 121 min | 842 ± 31 ng·h/mL | 27 min | 234 ± 154 ng·h/mL | 800 ± 350 nM | 25.2 min | 232 ± 154 ng·h/mL | 38.4 min | 5.5% | F ([2]; PO 10 mg/kg vs IV 1 mg/kg): 1.4%; AUC(0-inf) [2, 6]: 96 ± 12 ng·h/mL; AUC(0-t) [2, 6]: 95 ± 12 ng·h/mL; Cmax [2, 6]: 2200 ± 500 nM; Tmax [2, 6]: 1.2 min; clearance [2, 6]: 177 mL/min/kg; half-life [2, 6]: 20.4 min; MRT inf [2, 6]: 12.6 min; Vd ([2]; male, Beagle, plasma, IV 1 mg/kg, read-out: Vz): 5.4 L/kg; Cmax [2, 7]: 80 ± 60 nM; Tmax [2, 7]: 21.6 min; half-life [2, 7]: 22.2 min; MRT inf [2, 7]: 37.2 min; Vd ([3]; IV 2 mg/kg): 6.87 L/kg; half-life ([3]; PO 10 mg/kg): 22.8 min
2 | Cc1ccc(C(=O)Nc2cccc3ccc(C)nc23)c(Cl)c1 [Compound A17, 2-Chloro-4-methyl-N-(2-methylquinolin-8-yl)benzamide] |  |  |  |  |  | A′ (A′ represents an increase greater than 50%) | 10 to 20% | 381 ± 66 ng·h/mL | 4420 ± 640 nM | 1.2 min |  | 54 min | 380 ± 66 ng·h/mL | 35.4 min | 587 ± 120 ng·h/mL | 1690 ± 740 nM | 15 min | 583 ± 119 ng·h/mL | 67.8 min | 31% | EC50 (CSM14.1 cells; dose-response): 20 to 100 µM; Vd ([3]; IV 2 mg/kg): 7.01 L/kg
3 | COc1c(C)cccc1C(=O)Nc1cccc2ccc(C)nc12 [Compound A19, 2-Methoxy-3-methyl-N-(2-methylquinolin-8-yl)benzamide] |  |  |  |  |  | A′ (A′ represents an increase greater than 50%) | 20 to 50% | 309 ± 17 ng·h/mL | 3850 ± 460 nM | 1.2 min | 0.167 mL/min/kg | 27 min | 299 ± 17 ng·h/mL | 27.6 min | 385 ± 99 ng·h/mL | 1250 ± 400 nM | 19.8 min | 375 ± 105 ng·h/mL | 45 min | 25% | half-life ([3]; PO 10 mg/kg): 26.4 min
4 | CCNc1ccc(C(=O)Nc2cccc3ccc(C)nc23)cc1 [Compound C19, 4-(Ethylamino)-N-(2-methylquinolin-8-yl)benzamide] | 27% | 344 ng·h/mL | 850 nM | 138 min | 10-15% |  | 20 to 50% |  |  |  |  |  |  |  |  |  |  |  |  |  | N2a Cells (H2O2-induced) cell rescue (N2a cells [4]): A (A represents a value greater than 50% cell rescue); pharmacokinetic properties as measured by CMAX, AUC and F (%) [1]: significantly improved pharmacokinetic properties; HEK293 Cells (TG-induced) cell rescue (HEK293 cells): A (A represents a value greater than 50% cell rescue); N2a Cells (TG-induced) cell rescue (N2a cells [5]): B (B represents a value between 10% to 50% cell rescue); Cell Survival (CSM14.1 cells): A (A represents a value greater than 50%); blood glucose (ob/ob mice): significantly lowered; glucose level after the last injection (ob/ob mice): identical to lean mice
5 | Cc1ccc2cccc(NC(=O)c3ccc(NC(C)C)cc3)c2n1 [Compound C20, 4-(Isopropylamino)-N-(2-methylquinolin-8-yl)benzamide] | 28% | 330 ng·h/mL | 860 nM | 39.6 min | greater than 15% |  | 20 to 50% |  |  |  |  |  |  |  |  |  |  |  |  |  | N2a Cells (H2O2-induced) cell rescue (N2a cells [4]): B (B represents a value between 10% to 50% cell rescue); pharmacokinetic properties as measured by CMAX, AUC and F (%) [1]: significantly improved pharmacokinetic properties; HEK293 Cells (TG-induced) cell rescue (HEK293 cells): B (B represents a value between 10% to 50% cell rescue); N2a Cells (TG-induced) cell rescue (N2a cells [5]): B (B represents a value between 10% to 50% cell rescue); Cell Survival (CSM14.1 cells): A (A represents a value greater than 50%); blood glucose (ob/ob mice): significantly lowered; glucose level after the last injection (ob/ob mice): identical to lean mice
